From PubChem BioAssay (NCI)
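Grown in 96-well plates, cells were treated for 48 hours with each compound at five concentrations. Insufficient inhibition: endpoint recorded as highest concentration tested. Abbreviation: GI50, concentration required for 50% inhibition of growth. The concentration for full growth arrest is given as TGI.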

What was measured:
Experiment in all cases: NCI anticancer screen, dose series, 48 h
[1] = tested on: SNB-75 CNS
[2] = tested on: K-562 leukemia
[3] = tested on: A549 NSCLC
[4] = tested on: RXF 393 renal
[5] = tested on: MDA-MB-231 breast
[6] = tested on: M14 melanoma
[7] = tested on: COLO 205 colon
[8] = tested on: HOP-92 NSCLC
[9] = tested on: 786-0 renal
[10] = tested on: LOX IMVI melanoma
[11] = tested on: OVCAR-5 ovarian
[12] = tested on: SW-620 colon
[13] = tested on: MOLT-4 leukemia
[14] = tested on: SK-MEL-2 melanoma
[15] = tested on: CCRF-CEM leukemia
[16] = tested on: SK-MEL-5 melanoma
[17] = tested on: UACC-62 melanoma
[18] = tested on: UO-31 renal
[19] = tested on: KM12 colon
[20] = tested on: A498 renal
[21] = tested on: SR leukemia
[22] = tested on: SF-539 CNS
[23] = tested on: IGROV1 ovarian
[24] = tested on: NCI-H23 lung
[25] = tested on: RPMI-8226 leukemia
[26] = tested on: UACC-257 melanoma
[27] = tested on: NCI-H522 lung
[28] = tested on: HOP-62 NSCLC
[29] = tested on: OVCAR-4 ovarian
[30] = tested on: NCI-H460 lung
[31] = tested on: ACHN renal
[32] = tested on: SF-268 CNS
[33] = tested on: NCI/ADR-RES ovarian
[34] = tested on: TK-10 renal
[35] = tested on: MCF7 breast
[36] = tested on: SN12C renal
[37] = tested on: SF-295 CNS
[38] = tested on: PC-3 prostate
[39] = tested on: HCT-15 colon
[40] = tested on: SNB-19 CNS
[41] = tested on: HCT-116 colon
[42] = tested on: NCI-H226 lung
[43] = tested on: SK-MEL-28 melanoma
[44] = tested on: HT29 colon
[45] = tested on: DU-145 prostate
[46] = tested on: SK-OV-3 ovarian
[47] = tested on: T-47D breast
[48] = tested on: HL-60(TB) leukemia
[49] = tested on: OVCAR-3 ovarian
[50] = tested on: EKVX NSCLC
[51] = tested on: MDA-MB-435
[52] = tested on: BT-549 breast
[53] = tested on: U251 CNS
[54] = tested on: HS 578T breast
[55] = tested on: HCC-2998 colon
[56] = tested on: CAKI-1 renal

**Q.** Which GI50 [1] does the source give for `N#Cc1c(-c2ccc(Cl)cc2)csc1NC(=O)Nc1cccc(C(F)(F)F)c1` here?
**A.** 2.01 µM

**Q.** And the TGI [1]?
**A.** 12.7 µM

**Q.** And the GI50 [2]?
**A.** 2.97 µM

**Q.** What about the TGI [2] of the same compound?
**A.** 12.2 µM

**Q.** And the GI50 [3]?
**A.** 2.57 µM

**Q.** What about the TGI [3] of the same compound?
**A.** 11.4 µM

**Q.** What about the GI50 [4] of the same compound?
**A.** 2.33 µM

**Q.** What about the TGI [4] of the same compound?
**A.** 5.96 µM

**Q.** What about the GI50 [5] of the same compound?
**A.** 1.78 µM

**Q.** What about the TGI [5] of the same compound?
**A.** 3.72 µM

**Q.** What about the GI50 [6] of the same compound?
**A.** 2.88 µM

**Q.** And the TGI [6]?
**A.** 10.1 µM

**Q.** And the GI50 [7]?
**A.** 1.91 µM

**Q.** And the TGI [7]?
**A.** 3.88 µM

**Q.** And the GI50 [8]?
**A.** 2.34 µM

**Q.** And the TGI [8]?
**A.** 5.93 µM

**Q.** What about the GI50 [9] of the same compound?
**A.** 2 µM

**Q.** And the TGI [9]?
**A.** 4.85 µM

**Q.** What about the GI50 [10] of the same compound?
**A.** 2.64 µM

**Q.** What about the TGI [10] of the same compound?
**A.** 9.48 µM

**Q.** What about the GI50 [11] of the same compound?
**A.** 2.98 µM

**Q.** What about the TGI [11] of the same compound?
**A.** 12.9 µM

**Q.** And the GI50 [12]?
**A.** 3.33 µM

**Q.** What about the TGI [12] of the same compound?
**A.** 13.9 µM

**Q.** What about the GI50 [13] of the same compound?
**A.** 1.91 µM

**Q.** And the TGI [13]?
**A.** 7.77 µM

**Q.** And the GI50 [14]?
**A.** 2 µM

**Q.** And the TGI [14]?
**A.** 4.57 µM

**Q.** And the GI50 [15]?
**A.** 3.17 µM

**Q.** What about the TGI [15] of the same compound?
**A.** 12 µM

**Q.** What about the GI50 [16] of the same compound?
**A.** 1.74 µM

**Q.** And the TGI [16]?
**A.** 3.18 µM

**Q.** What about the GI50 [17] of the same compound?
**A.** 2.92 µM

**Q.** What about the TGI [17] of the same compound?
**A.** 12 µM

**Q.** What about the GI50 [18] of the same compound?
**A.** 1.8 µM

**Q.** And the TGI [18]?
**A.** 5.48 µM

**Q.** What about the GI50 [19] of the same compound?
**A.** 2.64 µM

**Q.** What about the TGI [19] of the same compound?
**A.** 9.9 µM

**Q.** And the GI50 [20]?
**A.** 1.79 µM

**Q.** And the TGI [20]?
**A.** 4.3 µM

**Q.** What about the GI50 [21] of the same compound?
**A.** 2.41 µM

**Q.** What about the TGI [21] of the same compound?
**A.** 8.41 µM

**Q.** What about the GI50 [22] of the same compound?
**A.** 2.06 µM

**Q.** And the TGI [22]?
**A.** 4.85 µM

**Q.** And the GI50 [23]?
**A.** 3.51 µM

**Q.** And the TGI [23]?
**A.** 14.2 µM

**Q.** And the GI50 [24]?
**A.** 1.99 µM

**Q.** What about the TGI [24] of the same compound?
**A.** 5.33 µM

**Q.** And the GI50 [25]?
**A.** 1.84 µM

**Q.** What about the TGI [25] of the same compound?
**A.** 7 µM

**Q.** What about the GI50 [26] of the same compound?
**A.** 2.53 µM

**Q.** What about the TGI [26] of the same compound?
**A.** 6.74 µM

**Q.** And the GI50 [27]?
**A.** 1.65 µM

**Q.** And the TGI [27]?
**A.** 5.99 µM

**Q.** And the GI50 [28]?
**A.** 2.33 µM

**Q.** What about the TGI [28] of the same compound?
**A.** 8.04 µM

**Q.** And the GI50 [29]?
**A.** 3.2 µM

**Q.** And the TGI [29]?
**A.** 14.4 µM

**Q.** And the GI50 [30]?
**A.** 2.76 µM

**Q.** And the TGI [30]?
**A.** 10.2 µM

**Q.** What about the GI50 [31] of the same compound?
**A.** 2.23 µM

**Q.** And the TGI [31]?
**A.** 6.51 µM

**Q.** And the GI50 [32]?
**A.** 3.28 µM

**Q.** What about the TGI [32] of the same compound?
**A.** 14.7 µM

**Q.** And the GI50 [33]?
**A.** 2.1 µM

**Q.** And the TGI [33]?
**A.** 4.7 µM

**Q.** And the GI50 [34]?
**A.** 2.23 µM

**Q.** What about the TGI [34] of the same compound?
**A.** 8.95 µM

**Q.** And the GI50 [35]?
**A.** 3.04 µM

**Q.** And the TGI [35]?
**A.** 9.97 µM

**Q.** And the GI50 [36]?
**A.** 2.93 µM

**Q.** What about the TGI [36] of the same compound?
**A.** 10.7 µM

**Q.** And the GI50 [37]?
**A.** 1.74 µM

**Q.** And the TGI [37]?
**A.** 4.21 µM

**Q.** What about the GI50 [38] of the same compound?
**A.** 2.43 µM

**Q.** And the TGI [38]?
**A.** 11.5 µM

**Q.** What about the GI50 [39] of the same compound?
**A.** 2.38 µM

**Q.** What about the TGI [39] of the same compound?
**A.** 10.2 µM

**Q.** And the GI50 [40]?
**A.** 3.39 µM

**Q.** What about the TGI [40] of the same compound?
**A.** 13.4 µM

**Q.** What about the GI50 [41] of the same compound?
**A.** 2.33 µM

**Q.** And the TGI [41]?
**A.** 8.44 µM

**Q.** And the GI50 [42]?
**A.** 3.42 µM

**Q.** And the TGI [42]?
**A.** 10.5 µM

**Q.** And the GI50 [43]?
**A.** 2.65 µM

**Q.** What about the TGI [43] of the same compound?
**A.** 8.97 µM

**Q.** And the GI50 [44]?
**A.** 2.5 µM

**Q.** What about the TGI [44] of the same compound?
**A.** 10.5 µM

**Q.** And the GI50 [45]?
**A.** 3.21 µM

**Q.** What about the TGI [45] of the same compound?
**A.** 13.9 µM

**Q.** And the GI50 [46]?
**A.** 2.54 µM

**Q.** What about the TGI [46] of the same compound?
**A.** 6.89 µM

**Q.** And the GI50 [47]?
**A.** 1.76 µM

**Q.** And the TGI [47]?
**A.** 7.79 µM

**Q.** What about the GI50 [48] of the same compound?
**A.** 2.43 µM

**Q.** And the TGI [48]?
**A.** 6.69 µM

**Q.** And the GI50 [49]?
**A.** 2.73 µM

**Q.** And the TGI [49]?
**A.** 11.2 µM

**Q.** What about the GI50 [50] of the same compound?
**A.** 1.97 µM

**Q.** What about the TGI [50] of the same compound?
**A.** 9.75 µM

**Q.** And the GI50 [51]?
**A.** 2.73 µM

**Q.** What about the TGI [51] of the same compound?
**A.** 10.3 µM

**Q.** What about the GI50 [52] of the same compound?
**A.** 2.62 µM

**Q.** What about the TGI [52] of the same compound?
**A.** 9.23 µM

**Q.** What about the GI50 [53] of the same compound?
**A.** 2.09 µM

**Q.** What about the TGI [53] of the same compound?
**A.** 5.46 µM

**Q.** What about the GI50 [54] of the same compound?
**A.** 3.25 µM

**Q.** And the TGI [54]?
**A.** 23.9 µM

**Q.** What about the GI50 [55] of the same compound?
**A.** 2.75 µM

**Q.** And the TGI [55]?
**A.** 7.97 µM

**Q.** And the GI50 [56]?
**A.** 2.7 µM

**Q.** And the TGI [56]?
**A.** 10.5 µM
